Our source for the IC50 values is US11685747B2, “Compounds that inhibit MCL-1 protein” (AMGEN INC., priority 2014, dated 2023).

In one experiment the target is T1, recombinant human Mcl-1 (Homo sapiens, UniProt Q07820).
T1 construct: C-terminally 6×His tagged Mcl-1 containing residues 171-327; made in house
The experiment can be described thus: Cell free Mcl-1:Bim affinity assay (Mcl-1 HTRF, TR-FRET). It counts as binding. The conditions noted are these: inhibition of Mcl-1/Bim interaction. (In general: TR-FRET usually uses a lanthanide donor and a delayed reading to cut background.)

Experiment [1] has as its target T2, Mcl-1/Bak protein-protein interactions (Homo sapiens, UniProt Q07820).
T2 construct: expressed in transfected cells; host or cells: HEK 293 M cells, transient transfection
The experiment can be described thus: Cell-based split luciferase complementation assay. The conditions noted are these: HEK 293 M cells, serum-free, 4 h.

The next experiment concerns OPM-2. Put plainly: Cell viability assay (OPM-2 10 FBS, CellTiter-Glo). The note with it: OPM-2 cells. Type of experiment: cell-based, human. On the technique in general: Cellular ATP, detected with luciferase, serves as a proxy for viable cell number.

T1 sequence (Q07820 171-327): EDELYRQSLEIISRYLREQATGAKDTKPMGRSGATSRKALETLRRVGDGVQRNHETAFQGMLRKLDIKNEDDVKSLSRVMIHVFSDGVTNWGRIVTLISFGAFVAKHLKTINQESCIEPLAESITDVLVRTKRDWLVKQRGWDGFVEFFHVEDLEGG
T2 sequence (Q07820 whole entry): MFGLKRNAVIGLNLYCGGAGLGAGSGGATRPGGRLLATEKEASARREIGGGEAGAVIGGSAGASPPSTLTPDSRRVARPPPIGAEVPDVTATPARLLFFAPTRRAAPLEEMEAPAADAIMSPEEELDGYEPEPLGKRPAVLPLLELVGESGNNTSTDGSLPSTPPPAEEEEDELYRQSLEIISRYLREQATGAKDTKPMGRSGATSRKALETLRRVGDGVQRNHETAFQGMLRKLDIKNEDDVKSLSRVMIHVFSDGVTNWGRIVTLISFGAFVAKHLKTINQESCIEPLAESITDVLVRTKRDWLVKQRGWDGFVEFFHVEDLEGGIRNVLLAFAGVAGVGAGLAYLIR

As for `CC[C@@H]1CCCC[C@H](OC)[C@@H]2CC[C@H]2CN2C[C@@]3(CCCc4cc(Cl)ccc43)COc3ccc(cc32)C(=O)NS1(=O)=O` [Example 21, (1S,3′R,6′R,7′S,12′R)-6-Chloro-12′-Ethyl-7′-Methoxy-3,4-Dihydro-2H,15′H-Spiro[Naphthalene-1,22′-[20]Oxa[13]Thia[1,14]Diazatetracyclo[14.7.2.0^3,6.0^19,24]Pentacos A[16,18,24]Trien]-15′-One 13′,13′-Dioxide], the IC50 was found to be 2.78 nM on recombinant human Mcl-1; 192 nM in experiment [1]; 4170 nM with OPM-2 (Homo sapiens, OPM-2, 16 h).

As to `CC[C@@H]1[C@@H](C)C/C=C/[C@H](OC)[C@@H]2CC[C@H]2CN2C[C@@]3(CCCc4cc(Cl)ccc43)COc3ccc(cc32)C(=O)NS1(=O)=O` [Example 25, (1S,3′R,6′R,7′S,8′E,11′S,12′R)-6-Chloro-12′-Ethyl-7′-Methoxy-11′-Methyl-3,4-Dihydro-2H,15′H-Spiro[Naphthalene-1,22′-[20]Oxa[13]Thia[1,14]Diazatetracyclo[14.7.2.0^3,6.0^19,24]Pentacosa[8,16,18,24]Tetraen]-15′-One 13′,13′-Dioxide], the IC50 was found to be 0.542 nM on recombinant human Mcl-1; 77.9 nM in experiment [1]; 404 nM in the experiment on OPM-2 (Homo sapiens, OPM-2, 16 h).

`CO[C@H]1/C=C/CCCS(=O)(=O)NC(=O)c2ccc3c(c2)N(C[C@@H]2CC[C@H]21)C[C@@]1(CCCc2cc(Cl)ccc21)CO3` [Example 9, (1S,3′R,6′R,7′S,8′E)-6-Chloro-7′-Methoxy-3,4-Dihydro-2H,15′H-Spiro[Naphthalene-1,22′-[20]Oxa[13]Thia[1,14]Diazatetracyclo[14.7.2.0^3,6.0^19,24]Pentacos A[8,16,18,24]Tetraen]-15′-One 13′,13′-Dioxide]: the IC50 on recombinant human Mcl-1 turned out to be 1.24 nM; in experiment [1], 127 nM; in the experiment with OPM-2 (Homo sapiens, OPM-2, 16 h), 1200 nM.

Regarding `CC(C)C[C@@H]1[C@@H](C)C/C=C/[C@H](O)[C@@H]2CC[C@H]2CN2C[C@@]3(CCCc4cc(Cl)ccc43)COc3ccc(cc32)C(=O)NS1(=O)=O` (single isomer, unassigned) [Example 66], the IC50 stood at 2.12 nM at recombinant human Mcl-1, 224 nM in experiment [1] and 2330 nM in the experiment with OPM-2 (16 h).

With `CC[C@@H]1CC/C=C/[C@H](OC)[C@@H]2CC[C@H]2CN2C[C@@]3(CCCc4cc(Cl)ccc43)COc3ccc(cc32)C(=O)NS1(=O)=O` [Example 20, (1S,3′R,6′R,7′S,8′E,12′R)-6-Chloro-12′-Ethyl-7′-Methoxy-3,4-Dihydro-2H,15′H-Spiro[Naphthalene-1,22′-[20]Oxa[13]Thia[1,14]Diazatetracyclo[14.7.2.0^3,6.0^19,24]Pentacos A[8,16,18,24]Tetraen]-15′-One 13′,13′-Dioxide], the IC50 on recombinant human Mcl-1 came to 0.647 nM; in experiment [1] it was 50.4 nM; with OPM-2 (Homo sapiens, OPM-2, 16 h) it was 390 nM.

With `COCCO[C@H]1/C=C/C[C@@H](C)[C@@H](C(C)C)S(=O)(=O)NC(=O)c2ccc3c(c2)N(C[C@@H]2CC[C@H]21)C[C@@]1(CCCc2cc(Cl)ccc21)CO3` [Example 54, (1S,3′R,6′R,7′S,8′E,11′R,12′R)-6-Chloro-7′-(2-Methoxyethoxy)-11′-Methyl-12′-(1-Methylethyl)-3,4-Dihydro-2H,15′H-Spiro[Naphthalene-1,22′-[20]Oxa[13]Thia[1,14]Diazatetracyclo[14.7.2.0^3,6.0^19,24]Pentacosa[8,16,18,24]Tetraen]-15′-One 13′,13′-Dioxide], the IC50 was 0.153 nM at recombinant human Mcl-1; 29.1 nM in experiment [1]; 131 nM with OPM-2 (Homo sapiens, OPM-2, 16 h).

For `CO[C@H]1CCC[C@H](C)[C@@H](C)S(=O)(=O)NC(=O)c2ccc3c(c2)N(C[C@@H]2CC[C@H]21)C[C@@]1(CCCc2cc(Cl)ccc21)CO3` [Example 7, (1S,3′R,6′R,7′S,11′S,12′R)-6-Chloro-7′-Methoxy-11′,12′-Dimethyl-3,4-Dihydro-2H,15′H-Spiro[Naphthalene-1,22′-[20]Oxa[13]Thia[1,14]Diazatetracyclo[14.7.2.0^3,6.0^19,24]Pentacos A[16,18,24]Trien]-15′-One 13′,13′-Dioxide], the IC50 at recombinant human Mcl-1 was 1.18 nM; in experiment [1] it was 147 nM; in the experiment with OPM-2 (Homo sapiens, OPM-2, 16 h) it was 1060 nM.

The term IC50 denotes the concentration that gives 50% inhibition.
